According to article PMC8462401 (Blood, 2021):

Legend:
[1] = molecular target: vascular endothelial growth factor receptor 1 (Homo sapiens, UniProt P17948); assay: BaF3 panel of […] receptor tyrosine kinases, […] inhibition at […]; format: cell-based; details: BaF3, read-out: % inhibition at 100 nM
MER = molecular target: T1, MER (Homo sapiens, UniProt Q12866); assay: radiometric kinase assay at ATP Km; format: biochemical
T1 sequence (Q12866 21-999): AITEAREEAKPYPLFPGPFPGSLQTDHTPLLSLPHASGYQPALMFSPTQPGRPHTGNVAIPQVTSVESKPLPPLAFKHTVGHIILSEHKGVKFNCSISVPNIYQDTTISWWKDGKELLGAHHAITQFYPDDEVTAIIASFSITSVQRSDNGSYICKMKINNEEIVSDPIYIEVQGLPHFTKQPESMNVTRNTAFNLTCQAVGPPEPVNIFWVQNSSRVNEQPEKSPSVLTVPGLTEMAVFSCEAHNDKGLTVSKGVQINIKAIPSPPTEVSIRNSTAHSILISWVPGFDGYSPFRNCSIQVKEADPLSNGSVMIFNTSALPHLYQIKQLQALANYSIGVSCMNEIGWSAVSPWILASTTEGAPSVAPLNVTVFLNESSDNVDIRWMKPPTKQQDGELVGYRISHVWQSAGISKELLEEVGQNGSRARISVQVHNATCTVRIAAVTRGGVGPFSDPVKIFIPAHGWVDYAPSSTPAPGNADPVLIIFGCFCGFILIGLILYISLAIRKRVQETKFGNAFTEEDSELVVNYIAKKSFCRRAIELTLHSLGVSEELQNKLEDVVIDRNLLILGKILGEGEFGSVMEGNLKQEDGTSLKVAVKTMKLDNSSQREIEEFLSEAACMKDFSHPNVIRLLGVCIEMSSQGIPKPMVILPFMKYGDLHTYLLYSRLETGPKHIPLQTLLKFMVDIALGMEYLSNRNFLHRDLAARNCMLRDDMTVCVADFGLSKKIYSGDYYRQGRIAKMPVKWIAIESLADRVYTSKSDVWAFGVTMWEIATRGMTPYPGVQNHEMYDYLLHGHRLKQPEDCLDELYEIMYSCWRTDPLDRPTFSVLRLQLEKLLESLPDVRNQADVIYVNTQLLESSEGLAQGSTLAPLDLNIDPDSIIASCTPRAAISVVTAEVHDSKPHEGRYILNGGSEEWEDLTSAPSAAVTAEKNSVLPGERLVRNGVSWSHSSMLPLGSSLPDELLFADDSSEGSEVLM

FGFR3 = FGFR3 (Homo sapiens, UniProt P22607); assay: BaF3 panel of […] receptor tyrosine kinases, […] inhibition at […]; format: cell-based; details: BaF3, read-out: % inhibition at 100 nM
FGFR3, sequence (P22607 23-806): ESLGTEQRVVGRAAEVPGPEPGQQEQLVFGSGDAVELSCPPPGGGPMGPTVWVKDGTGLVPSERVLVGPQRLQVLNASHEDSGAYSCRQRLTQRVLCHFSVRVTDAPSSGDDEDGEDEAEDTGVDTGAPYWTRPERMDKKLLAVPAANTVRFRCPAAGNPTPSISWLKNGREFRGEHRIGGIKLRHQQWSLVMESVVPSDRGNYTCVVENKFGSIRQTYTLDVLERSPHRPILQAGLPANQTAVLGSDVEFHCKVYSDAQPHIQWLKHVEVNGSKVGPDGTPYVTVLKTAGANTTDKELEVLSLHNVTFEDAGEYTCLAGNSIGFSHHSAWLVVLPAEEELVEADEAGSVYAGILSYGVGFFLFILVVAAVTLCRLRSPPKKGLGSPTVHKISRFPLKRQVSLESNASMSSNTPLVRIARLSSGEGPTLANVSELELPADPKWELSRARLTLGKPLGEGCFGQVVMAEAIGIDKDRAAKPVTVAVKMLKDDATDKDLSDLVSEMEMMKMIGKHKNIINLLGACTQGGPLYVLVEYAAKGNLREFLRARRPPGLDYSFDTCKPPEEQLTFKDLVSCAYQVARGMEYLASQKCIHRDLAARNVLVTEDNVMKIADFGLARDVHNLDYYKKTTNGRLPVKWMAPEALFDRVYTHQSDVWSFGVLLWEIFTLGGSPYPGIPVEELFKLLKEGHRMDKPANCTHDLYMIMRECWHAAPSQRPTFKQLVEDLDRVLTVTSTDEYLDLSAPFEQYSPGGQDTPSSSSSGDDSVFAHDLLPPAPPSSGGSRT

vascular endothelial growth factor receptor 1, sequence (P17948 27-1338): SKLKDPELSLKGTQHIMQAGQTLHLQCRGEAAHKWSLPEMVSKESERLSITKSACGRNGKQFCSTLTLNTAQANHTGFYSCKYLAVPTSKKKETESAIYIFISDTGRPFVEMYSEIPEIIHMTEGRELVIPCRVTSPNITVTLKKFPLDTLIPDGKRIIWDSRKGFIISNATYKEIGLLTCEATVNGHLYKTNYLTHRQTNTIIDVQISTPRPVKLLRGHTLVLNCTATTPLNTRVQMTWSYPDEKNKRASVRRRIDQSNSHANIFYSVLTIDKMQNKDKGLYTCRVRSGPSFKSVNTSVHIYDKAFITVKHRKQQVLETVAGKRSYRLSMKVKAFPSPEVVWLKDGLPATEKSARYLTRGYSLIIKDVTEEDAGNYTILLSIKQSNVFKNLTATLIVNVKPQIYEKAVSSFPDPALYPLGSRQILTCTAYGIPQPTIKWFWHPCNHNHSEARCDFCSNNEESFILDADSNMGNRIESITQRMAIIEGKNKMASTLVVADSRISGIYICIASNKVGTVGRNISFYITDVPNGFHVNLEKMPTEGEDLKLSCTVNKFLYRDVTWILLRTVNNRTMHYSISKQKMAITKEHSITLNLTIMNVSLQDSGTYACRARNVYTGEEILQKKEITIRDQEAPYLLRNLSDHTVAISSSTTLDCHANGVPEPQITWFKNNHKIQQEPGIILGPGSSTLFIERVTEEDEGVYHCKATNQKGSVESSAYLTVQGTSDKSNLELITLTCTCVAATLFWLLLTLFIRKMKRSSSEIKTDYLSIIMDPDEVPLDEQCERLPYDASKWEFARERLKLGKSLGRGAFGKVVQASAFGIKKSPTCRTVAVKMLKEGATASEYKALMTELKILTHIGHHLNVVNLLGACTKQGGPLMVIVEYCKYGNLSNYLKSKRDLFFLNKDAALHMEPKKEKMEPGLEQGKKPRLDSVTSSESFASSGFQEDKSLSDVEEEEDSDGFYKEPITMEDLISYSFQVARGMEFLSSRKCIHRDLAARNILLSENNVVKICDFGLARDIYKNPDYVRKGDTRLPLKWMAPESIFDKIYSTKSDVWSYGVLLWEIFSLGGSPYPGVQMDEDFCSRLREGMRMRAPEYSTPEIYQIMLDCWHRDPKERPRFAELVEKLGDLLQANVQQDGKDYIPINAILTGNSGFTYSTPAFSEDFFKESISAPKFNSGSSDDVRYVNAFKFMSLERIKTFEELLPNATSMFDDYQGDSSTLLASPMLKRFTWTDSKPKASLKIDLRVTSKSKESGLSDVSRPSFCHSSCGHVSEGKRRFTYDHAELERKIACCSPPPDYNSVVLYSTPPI

inhibition at 0.1 µM [1]: 60%
IC50 (MER): 44 nM
inhibition at 0.1 µM (FGFR3): 60%
SMILES: Nc1ncc(-c2cnn(C3CCNCC3)c2)cc1-c1nnc(CC2CC2)o1 [SLC-391, 3-(5-(cyclopropylmethyl)-1,3,4-oxadiazole-2-yl)-5-(1-(piperidine-4-yl)-1H-pyrazole-4-yl)pyridine-2-amine]
